What was measured:
[1] = test system: HCT-116 colon cancer cell line; experiment: MTT cytotoxicity, colon cancer cell line; format: cell-based; details: 95% confidence interval in brackets
Procedure: (§1) The 4-oxoquinoline-3-carboxamide derivatives (0.3125–20 μM) were tested for cytotoxic activity against three cancer cell lines: HCT-116 (colon), ACP03 (gastric), and MDAMB-231 (breast) (Table 1). Active derivatives were also tested against a normal fibroblast cell line (MRC-5). All cell lines were maintained in DMEM medium supplemented with 10% fetal bovine serum, 2 mM glutamine, 100 U/mL penicillin, and 100 µg/mL streptomycin and were incubated at 37 °C with 5% CO2. Each derivative was dissolved with DMSO to a concentration of 10 mM. The final concentration of DMSO in the culture medium was kept at a constant value below 0.1% (v/v). The derivatives (0.3125–20 µM) were incubated with the cells for 72 h. The negative control contained the same amount of DMSO ([…]). Cell viability was determined by the reduction of the yellow dye 3-(4,5-dimethyl-2-thiazol)-2,5-diphenyl-2H-tetrazolium bromide (MTT) to a blue formazan product as described by Mosmann.
(§2) In the MTT experiments, the results were analyzed according to their means and standard errors in the program GraphPad Prism. Each sample was analyzed in triplicate.

[2] = test system: MDAMB231 breast cancer cell line; experiment: MTT cytotoxicity, breast cancer cell line; format: cell-based; details: 95% confidence interval in brackets
Procedure: as §1, §2

mouse erythrocytes = experiment: Hemolytic assay (cell membrane disruption); format: cell-based; details: result in words
Procedure: (§3) The assay was performed in 96-well plates using a 2% mouse erythrocyte suspension in 0.85% NaCl containing 10 mM CaCl2. Derivatives 10–18, diluted as described above, were tested at 250 µg/mL. After incubation at room temperature for 1 h and centrifugation, the supernatant was removed, and the liberated hemoglobin was measured spectrophotometrically at 540 nm. DMSO was used as a negative control, and Triton X-100 (1%) was used as a positive control.

[3] = test system: ACP-03 (ACP03) gastric cancer cell line; experiment: MTT cytotoxicity, gastric cancer cell line; format: cell-based; details: for IC50: gastric cancer cell line, MTT, 72 h, 95% confidence interval in brackets
Procedure: as §1, §2

[4] = molecular target: T1, Human topoisomerase IIα (TopoIIα) (Homo sapiens, UniProt P11388); experiment: DNA relaxation assay (Topoisomerase II Drug Screening Kit); format: biochemical; details: 100 µM compound, 10 U enzyme, 37 °C, 30 min, agarose gel
T1 construct: purchased TopoGEN, Inc. (Columbus, OH, USA)
T1 sequence (P11388 whole entry): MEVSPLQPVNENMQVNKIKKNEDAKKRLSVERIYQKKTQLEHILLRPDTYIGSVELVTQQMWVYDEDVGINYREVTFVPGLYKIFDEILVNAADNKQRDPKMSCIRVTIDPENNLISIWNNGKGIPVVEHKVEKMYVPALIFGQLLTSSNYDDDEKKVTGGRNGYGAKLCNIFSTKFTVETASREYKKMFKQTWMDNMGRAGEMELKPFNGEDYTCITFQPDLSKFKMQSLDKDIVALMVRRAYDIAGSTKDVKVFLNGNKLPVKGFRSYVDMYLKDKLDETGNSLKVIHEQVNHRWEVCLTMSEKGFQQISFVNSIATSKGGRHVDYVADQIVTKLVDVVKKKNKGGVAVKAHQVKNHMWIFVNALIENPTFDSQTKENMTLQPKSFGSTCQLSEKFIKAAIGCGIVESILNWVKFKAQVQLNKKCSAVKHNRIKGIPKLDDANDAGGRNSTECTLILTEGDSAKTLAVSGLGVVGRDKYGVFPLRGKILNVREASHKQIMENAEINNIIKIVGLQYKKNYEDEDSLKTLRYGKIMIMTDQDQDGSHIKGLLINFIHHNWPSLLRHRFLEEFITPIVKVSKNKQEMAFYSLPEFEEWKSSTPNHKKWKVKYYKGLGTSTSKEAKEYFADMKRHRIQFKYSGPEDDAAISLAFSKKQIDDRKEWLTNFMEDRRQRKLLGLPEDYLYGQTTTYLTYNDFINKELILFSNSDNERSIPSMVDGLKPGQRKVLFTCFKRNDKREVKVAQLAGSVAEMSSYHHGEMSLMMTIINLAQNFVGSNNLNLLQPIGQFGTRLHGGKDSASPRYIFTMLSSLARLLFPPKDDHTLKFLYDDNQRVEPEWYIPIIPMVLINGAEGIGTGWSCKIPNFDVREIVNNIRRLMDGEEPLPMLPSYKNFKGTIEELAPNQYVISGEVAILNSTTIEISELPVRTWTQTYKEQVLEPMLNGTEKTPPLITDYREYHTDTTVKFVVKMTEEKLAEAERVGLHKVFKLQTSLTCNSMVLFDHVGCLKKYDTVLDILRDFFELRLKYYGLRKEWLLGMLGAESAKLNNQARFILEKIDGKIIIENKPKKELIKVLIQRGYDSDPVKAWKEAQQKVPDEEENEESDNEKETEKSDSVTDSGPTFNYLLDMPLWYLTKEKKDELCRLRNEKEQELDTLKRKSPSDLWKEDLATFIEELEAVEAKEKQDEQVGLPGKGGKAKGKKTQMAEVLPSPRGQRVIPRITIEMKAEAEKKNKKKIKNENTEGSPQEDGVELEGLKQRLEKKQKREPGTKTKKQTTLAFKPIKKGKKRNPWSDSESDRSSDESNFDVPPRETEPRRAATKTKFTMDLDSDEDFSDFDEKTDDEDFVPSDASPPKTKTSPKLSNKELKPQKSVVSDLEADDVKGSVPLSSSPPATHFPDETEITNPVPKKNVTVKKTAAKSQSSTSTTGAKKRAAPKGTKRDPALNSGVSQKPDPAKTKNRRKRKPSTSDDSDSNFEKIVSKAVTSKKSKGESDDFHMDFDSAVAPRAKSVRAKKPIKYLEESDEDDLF
Procedure: Human topoisomerase IIα (TopoIIα) was obtained from TopoGEN, Inc. (Columbus, OH, USA). Proteinase K from Tritirachium album was obtained from Sigma-Aldrich, Inc. (St. Louis, MO, USA) and was dissolved in DNase free water. A TAE gel electrophoresis buffer was used in this assay.
The inhibitory effects of the derivatives on human TopoIIα were measured using a Eukaryotic Topoisomerase II Drug Screening Kit (TopoGEN, Inc.). All derivatives were dissolved in DMSO immediately prior to testing.
The substances were tested at a fixed concentration of 0.1 mM. […] Supercoiled plasmid DNA (pRYG, 200 ng) was incubated with human TopoIIα (10 U) at 37 °C for 30 min in relaxation buffers in the absence or presence of derivatives (final volume is 20 μL). The order of reagent addition was buffer, test derivative, Topo IIα and finally DNA.
The assay samples were analyzed by electrophoresis on a 1% agarose gel without EtdBr (25 V, 18 h, room temperature) in TAE buffer, followed by staining in 0.5 μg/mL of EtdBr to allow for observation of the DNA bands under UV light.

[5] = test system: MRC5 normal human fetal lung fibroblast; experiment: MTT cytotoxicity, normal fibroblast cell line; format: cell-based; details: for cytotoxicity in normal fibroblasts: at 20 µM, MRC-5; for IC50: normal human fetal lung fibroblast, MTT, 72 h, 95% confidence interval in brackets
Procedure: as §1, §2

[6] = Hemolytic assay (cell membrane disruption); format: cell-based, mouse; details: 2% mouse erythrocyte suspension, 1 h, room temperature; read-out: Hemolysis (EC50)
Procedure: as §3

Compound	IC50 ([1]; 72 h) [µM]	IC50 ([2]; 72 h) [µM]	other results
COc1ccc(OC)c(NC(=O)c2c[nH]c3ccc(Cl)cc3c2=O)c1 [Derivative 18b, 6-Chloro-4-oxo-N'-(2,5-dimethoxyphenyl)-1,4-dihydroquinoline-3-carboxamide]	> 10	> 10	
O=C(NC1CCCCC1)c1c[nH]c2ccccc2c1=O [Derivative 11a, 4-Oxo-N'-cyclohexyl-1,4-dihydroquinoline-3-carboxamide]	> 10	> 10	
O=C(Nc1cc(Cl)ccc1Cl)c1c[nH]c2ccccc2c1=O [Derivative 17a, 4-Oxo-N'-(2,5-dichlorophenyl)-1,4-dihydroquinoline-3-carboxamide]	> 10	> 10	
Cc1ccc(NC(=O)c2c[nH]c3cc(Cl)ccc3c2=O)cc1 [Derivative 16c, 7-Chloro-4-oxo-N'-(p-tolyl)-1,4-dihydroquinoline-3-carboxamide]	> 10	> 10	
O=C(Nc1cc(Cl)ccc1Cl)c1c[nH]c2cc(Cl)ccc2c1=O [Derivative 17c, 7-Chloro-4-oxo-N'-(2,5-dichlorophenyl)-1,4-dihydroquinoline-3-carboxamide]	> 10	> 10	
O=C(NC1CCCCC1)c1c[nH]c2ccc(Cl)cc2c1=O [Derivative 11b, 6-Chloro-4-oxo-N'-cyclohexyl-1,4-dihydroquinoline-3-carboxamide]	> 10	> 10	
O=C(Nc1ccccc1)c1c[nH]c2ccc(Cl)cc2c1=O [Derivative 15b, 6-Chloro-4-oxo-N'-phenyl-1,4-dihydroquinoline-3-carboxamide]	> 10	> 10	
O=C(NCc1ccc(Cl)cc1)c1c[nH]c2cc(Cl)ccc2c1=O [Derivative 10c, 7-Chloro-4-oxo-N'-(4-chlorobenzyl)-1,4-dihydroquinoline-3-carboxamide]	> 10	> 10	
O=C(Nc1ccc(Cl)cc1)c1c[nH]c2ccc(Cl)cc2c1=O [Derivative 12b, 6-Chloro-4-oxo-N'-(4-chlorophenyl)-1,4-dihydroquinoline-3-carboxamide]	> 10	> 10	
COc1ccc(OC)c(NC(=O)c2c[nH]c3cc(Cl)ccc3c2=O)c1 [Derivative 18c, 7-Chloro-4-oxo-N'-(2,5-dimethoxyphenyl)-1,4-dihydroquinoline-3-carboxamide]	> 10	> 10	
O=C(Nc1ccc(F)cc1)c1c[nH]c2cc(Cl)ccc2c1=O [Derivative 13b, 7-Chloro-4-oxo-N'-(4-fluorphenyl)-1,4-dihydroquinoline-3-carboxamide]	> 10	> 10	
COc1ccc(OC)c(NC(=O)c2c[nH]c3ccccc3c2=O)c1 [Derivative 18a, 4-Oxo-N'-(2,5-dimethoxyphenyl)-1,4-dihydroquinoline-3-carboxamide]	> 10	> 10	
O=C(Nc1cc(Cl)ccc1Cl)c1c[nH]c2ccc(Cl)cc2c1=O [Derivative 17b, 6-Chloro-4-oxo-N'-(2,5-dichlorophenyl)-1,4-dihydroquinoline-3-carboxamide]	> 10	> 10	hemolytical activity against blood cells (mouse erythrocytes): no hemolytical activity; IC50 [3]: 5.18 µM; inhibition of supercoiled DNA (pRYG) relaxation by topoisomerase II [4]: only the SC band is observed, which indicates topoisomerase inhibition; cytotoxicity in normal fibroblasts [5]: did not display cytotoxicity; IC50 [5]: > 20 µM
COc1ccc(NC(=O)c2c[nH]c3ccccc3c2=O)cc1 [Derivative 14a, 4-oxo-N'-(4-Methoxyphenyl)-1,4-dihydroquinoline-3-carboxamide]	> 10	> 10	
COc1ccc(NC(=O)c2c[nH]c3cc(Cl)ccc3c2=O)cc1 [Derivative 14b, 7-Chloro-4-oxo-N'-(4-methoxyphenyl)-1,4-dihydroquinoline-3-carboxamide]	> 10	> 10	
O=C(NC1CCCCC1)c1c[nH]c2cc(Cl)ccc2c1=O [Derivative 11c, 7-Chloro-4-oxo-N'-cyclohexyl-1,4-dihydroquinoline-3-carboxamide]	> 10	> 10	
O=C(Nc1ccc(F)cc1)c1c[nH]c2ccccc2c1=O [Derivative 13a, 4-oxo-N'-(4-Fluorophenyl)-1,4-dihydroquinoline-3-carboxamide]	> 10	> 10	
O=C(NCc1ccc(Cl)cc1)c1c[nH]c2ccccc2c1=O [Derivative 10a, 4-Oxo-N'-(4-chlorobenzyl)-1,4-dihydroquinoline-3-carboxamide]	> 10	> 10	
O=C(Nc1ccccc1)c1c[nH]c2ccccc2c1=O [Derivative 15a, 4-oxo-N'-Phenyl-1,4-dihydroquinoline-3-carboxamide]	> 10	> 10	
O=C(Nc1ccc(Cl)cc1)c1c[nH]c2ccccc2c1=O [Derivative 12a, 4-oxo-N'-(4-Chlorophenyl)-1,4-dihydroquinoline-3-carboxamide]	> 10	> 10	
O=C(Nc1ccccc1)c1c[nH]c2cc(Cl)ccc2c1=O [Derivative 15c, 7-Chloro-4-oxo-N'-phenyl-1,4-dihydroquinoline-3-carboxamide]	> 10	> 10	
Cc1ccc(NC(=O)c2c[nH]c3ccccc3c2=O)cc1 [Derivative 16a, 4-Oxo-N'-(p-tolyl)-1,4-dihydroquinoline-3-carboxamide]	> 10	> 10	
O=C(NCc1ccc(Cl)cc1)c1c[nH]c2ccc(Cl)cc2c1=O [Derivative 10b, 6-Chloro-4-oxo-N'-(4-chlorobenzyl)-1,4-dihydroquinoline-3-carboxamide]	> 10	> 10	
COc1cccc2c1C(=O)c1c(O)c3c(c(O)c1C2=O)C[C@@](O)(C(=O)CO)C[C@@H]3O[C@H]1C[C@H](N)[C@H](O)[C@H](C)O1 [DOXORUBICIN, doxorubicin, reference compound]			EC50 at 1 h [6]: > 200 µg/mL; selectivity against cancer cells versus normal cells ([3]; ACP-03 versus MRC-5): no selectivity; IC50 [3]: 0.274 µM; IC50 ([1]; Homo sapiens, HCT-116, 72 h): 0.1 µM; IC50 ([5]; MRC5): 0.2 µM; IC50 ([2]; Homo sapiens, MDA-MB-231, 72 h): 0.43 µM
Cc1ccc(NC(=O)c2c[nH]c3ccc(Cl)cc3c2=O)cc1 [Derivative 16b, 6-Chloro-4-oxo-N'-(p-tolyl)-1,4-dihydroquinoline-3-carboxamide]	> 10	> 10	hemolytical activity against blood cells (mouse erythrocytes): no hemolytical activity; IC50 [3]: 1.92 µM; inhibition of supercoiled DNA (pRYG) relaxation by topoisomerase II [4]: only the SC band is observed, which indicates topoisomerase inhibition; cytotoxicity in normal fibroblasts [5]: did not display cytotoxicity; IC50 [5]: > 20 µM

— PMC6271384, “Synthesis, Cytotoxicity and Mechanistic Evaluation of 4-Oxoquinoline-3-carboxamide Derivatives: Finding New Potential Anticancer Drugs” (Molecules, 2014)
